Experimental data published in patent publication US9365550B2, “Benzimidazoles as CNS active agents” (Hoffmann-La Roche Inc., priority 2012, dated 2016).

Assays:
[1] = test system: human embryonic stem cell derived neural stem cells (NSCs); assay: Neural stem cell proliferation assay (neurogenesis assay, ATP/CellTiterGlo); type: cell-based; settings: 96 h, compound concentration at which 150% activity of control (100%) is reached, NSC proliferation by ATP level after 4 days incubation, dose response 8 μM to 8 nM
Protocol: Neural Stem Cell Proliferation Assay
Neurogenic properties of small molecules are determined based on the proliferation of human embryonic stem cell derived neural stem cells (NSCs) which were derived via a dual smad inhibition as previously described (Chambers, S. M., et al., Highly efficient neural conversion of human ES and iPS cells by dual inhibition of SMAD signaling, Nature biotechnology, 2009. 27(3): p. 275-80.)
Compounds respond is measured by the increase in cells based on ATP levels (Promega:CellTiterGlo®) after an incubation period of 4 days.
NSCs are thawed and expanded over 3 passages. On the 14th day, NSCs are seeded in Polyornithin/Laminin coated 384 well plates at a cell density of 21,000 cells/cm^2 in a media volume of 38 μL.
4 hours after cell seeding, compound solutions are added at a volume of 2 μl. Stock solutions of the compounds (water, 5% DMSO) are diluted to obtain a dose response (11 points, dilution factor is 2), ranging from 8 μM to 8 nM. Controls are run to consistently determine the neurogenic properties of the cells:
Negative (neutral) control is cell culture Media (final DMSO concentration: 0.25%).
Positive controls are: • 1. cell culture Media+100 ng/ml FGF2 (final DMSO concentration: 0.1%) • 2. cell culture Media+20 ng/ml EGF (final DMSO concentration: 0.1%) • 3. cell culture Media+100 ng/ml Wnt3a (final DMSO concentration: 0.1%)
After 4 days incubation at 37° C., 5% CO2, the amount of ATP per well is quantified. The ATP concentration is proportional to the cell number. ATP is quantified by using the Promega CellTiterGlo® kit. The CellTiterGlo® reagents contain a cell lysis buffer, a thermo stable luciferase (UltraGlo™ recombinant luciferase), magnesium and luciferin. Luciferin reacts with ATP producing oxyluciferin, AMP and light. The luminescence signal is proportional to the ATP content.
The value of negative (neutral) control is determined for each assay plate by taking the average of 16 negative control wells. The neurogenic compound response is calculated for each compound as (compound/Negative Control)*100.
The values of EC150 from the dose response curve are determined for each test compound. The EC150 is the compound concentration at which 150% activity of control (100%) is reached.

In the case of `Cc1ccc(-n2nccc2-c2ccc3ncn(-c4ccc(C)cc4)c3c2)cc1` [Example 1, 1-p-Tolyl-6-(2-p-tolyl-2H-pyrazol-3-yl)-1H-benzoimidazole], the EC150 [1] is reported as 0.008 µM and the melting point is reported as 165 °C.
In the case of `c1ccc(-n2nccc2-c2ccc3ncn(-c4ccccc4)c3c2)cc1` [Example 2, 1-Phenyl-6-(2-phenyl-2H-pyrazol-3-yl)-1H-benzoimidazole], the EC150 [1] is reported as 0.014 µM and the melting point is reported as 194 °C.
`Fc1ccc(-n2nccc2-c2ccc3ncn(-c4ccccc4)c3c2)cc1` [Example 3, 6-[2-(4-Fluoro-phenyl)-2H-pyrazol-3-yl]-1-phenyl-1H-benzoimidazole] showed an EC150 [1] of 0.024 µM and a melting point of 201 °C.
With `Cc1ccc(-n2nccc2-c2ccc3ncn(-c4ccccc4)c3c2)cc1` [Example 4, 1-Phenyl-6-(2-p-tolyl-2H-pyrazol-3-yl)-1H-benzoimidazole] the EC150 [1] was 0.015 µM.
`Cc1ccc(-n2cnc3ccc(-c4ccnn4-c4ccccc4)cc32)cc1` [Example 5, 6-(2-Phenyl-2H-pyrazol-3-yl)-1-p-tolyl-1H-benzoimidazole] gave an EC150 [1] of 0.0165 µM and a melting point of 146 °C.
For `Cc1ccc(-n2cnc3ccc(-c4ccnn4-c4ccc(F)cc4)cc32)cc1` [Example 6, 6-[2-(4-Fluoro-phenyl)-2H-pyrazol-3-yl]-1-p-tolyl-1H-benzoimidazole], the EC150 [1] was 0.0195 µM and the melting point was 149 °C.
With `Fc1ccc(-n2cnc3ccc(-c4ccnn4-c4ccccc4)cc32)cc1` [Example 7, 1-(4-Fluoro-phenyl)-6-(2-phenyl-2H-pyrazol-3-yl)-1H-benzoimidazole] the EC150 [1] was 0.031 µM and the melting point was 194 °C.
For `Fc1ccc(-n2nccc2-c2ccc3ncn(-c4ccc(F)cc4)c3c2)cc1` [Example 8, 1-(4-Fluoro-phenyl)-6-[2-(4-fluoro-phenyl)-2H-pyrazol-3-yl]-1H-benzoimidazole], the EC150 [1] was 0.044 µM and the melting point was 173 °C.
Work on `Cc1ccc(-n2nccc2-c2ccc3ncn(-c4ccc(F)cc4)c3c2)cc1` [Example 9, 1-(4-Fluoro-phenyl)-6-(2-p-tolyl-2H-pyrazol-3-yl)-1H-benzoimidazole] yielded an EC150 [1] of 0.009 µM.
In the case of `Fc1ccc(-n2cnc3ccc(-c4ccnn4-c4ccc(C(F)(F)F)cc4)cc32)cc1` [Example 10, 1-(4-Fluoro-phenyl)-6-[2-(4-trifluoromethyl-phenyl)-2H-pyrazol-3-yl]-1H-benzoimidazole], the EC150 [1] is reported as 1.1 µM and the melting point is reported as 167 °C.
Work on `Fc1ccc(-n2cnc3ccc(-c4ccnn4-c4ccc(Cl)cc4)cc32)cc1` [Example 11, 6-[2-(4-Chloro-phenyl)-2H-pyrazol-3-yl]-1-(4-fluoro-phenyl)-1H-benzoimidazole] yielded an EC150 [1] of 0.11 µM and a melting point of 180 °C.
With `FC(F)(F)c1ccc(-n2nccc2-c2ccc3ncn(-c4ccc(Cl)cc4)c3c2)cc1` [Example 12, 1-(4-Chloro-phenyl)-6-[2-(4-trifluoromethyl-phenyl)-2H-pyrazol-3-yl]-1H-benzoimidazole] the EC150 [1] was 0.71 µM and the melting point was 198 °C.
For `Clc1ccc(-n2nccc2-c2ccc3ncn(-c4ccc(Cl)cc4)c3c2)cc1` [Example 13, 1-(4-Chloro-phenyl)-6-[2-(4-chloro-phenyl)-2H-pyrazol-3-yl]-1H-benzoimidazole], the EC150 [1] was 0.082 µM and the melting point was 182 °C.
For `FC(F)(F)c1ccc(-n2cnc3ccc(-c4ccnn4-c4ccc(Cl)cc4)cc32)cc1` [Example 14, 6-[2-(4-Chloro-phenyl)-2H-pyrazol-3-yl]-1-(4-trifluoromethyl-phenyl)-1H-benzoimidazole], the EC150 [1] was 0.62 µM and the melting point was 196 °C.
Work on `Fc1ccc(-n2cnc3ccc(-c4ccnn4-c4ccc(C(F)(F)F)cc4)cc32)c(F)c1` [Example 15, 1-(2,4-Difluoro-phenyl)-6-[2-(4-trifluoromethyl-phenyl)-2H-pyrazol-3-yl]-1H-benzoimidazole] yielded an EC150 [1] of 1.33 µM and a melting point of 129 °C.
Work on `Fc1ccc(-n2cnc3ccc(-c4ccnn4-c4ccc(Cl)cc4)cc32)c(F)c1` [Example 16, 6-[2-(4-Chloro-phenyl)-2H-pyrazol-3-yl]-1-(2,4-difluoro-phenyl)-1H-benzoimidazole] yielded an EC150 [1] of 0.19 µM and a melting point of 133 °C.
For `Fc1ccc(-n2nccc2-c2ccc3ncn(-c4ccc(F)cc4F)c3c2)cc1` [Example 17, 1-(2,4-Difluoro-phenyl)-6-[2-(4-fluoro-phenyl)-2H-pyrazol-3-yl]-1H-benzoimidazole], the EC150 [1] was 0.047 µM and the melting point was 152 °C.
Work on `Fc1ccc(-n2nccc2-c2ccc3ncn(-c4ccc(C(F)(F)F)cc4)c3c2)cc1` [Example 18, 6-[2-(4-Fluoro-phenyl)-2H-pyrazol-3-yl]-1-(4-trifluoromethyl-phenyl)-1H-benzoimidazole] yielded an EC150 [1] of 0.41 µM and a melting point of 204 °C.
`Fc1ccc(-n2nccc2-c2ccc3ncn(-c4ccc(Cl)cc4)c3c2)cc1` [Example 19, 1-(4-Chloro-phenyl)-6-[2-(4-fluoro-phenyl)-2H-pyrazol-3-yl]-1H-benzoimidazole] showed an EC150 [1] of 0.09 µM and a melting point of 173 °C.
In the case of `Fc1ccc(-n2nccc2-c2ccc3ncn(-c4ccncc4)c3c2)cc1` [Example 20, 6-[2-(4-Fluoro-phenyl)-2H-pyrazol-3-yl]-1-pyridin-4-yl-1H-benzoimidazole], the EC150 [1] is reported as 0.044 µM and the melting point is reported as 199 °C.
With `Clc1ccc(-n2nccc2-c2ccc3ncn(-c4ccncc4)c3c2)cc1` [Example 21, 6-[2-(4-Chloro-phenyl)-2H-pyrazol-3-yl]-1-pyridin-4-yl-1H-benzoimidazole] the EC150 [1] was 0.036 µM and the melting point was 203 °C.
For `Fc1ccc(-n2nccc2-c2ccc3ncn(-c4ccc(Cl)cc4F)c3c2)cc1` [Example 22, 1-(4-Chloro-2-fluoro-phenyl)-6-[2-(4-fluoro-phenyl)-2H-pyrazol-3-yl]-1H-benzoimidazole], the EC150 [1] was 0.084 µM and the melting point was 153 °C.
With `Fc1cc(Cl)ccc1-n1cnc2ccc(-c3ccnn3-c3ccc(Cl)cc3)cc21` [Example 23, 1-(4-Chloro-2-fluoro-phenyl)-6-[2-(4-chloro-phenyl)-2H-pyrazol-3-yl]-1H-benzoimidazole] the EC150 [1] was 0.17 µM and the melting point was 158 °C.
Work on `COc1ccc(-n2cnc3ccc(-c4ccnn4-c4ccc(F)cc4)cc32)cc1` [Example 24, 6-[2-(4-Fluoro-phenyl)-2H-pyrazol-3-yl]-1-(4-methoxy-phenyl)-1H-benzoimidazole] yielded an EC150 [1] of 0.021 µM and a melting point of 143 °C.
In the case of `COc1ccc(-n2cnc3ccc(-c4ccnn4-c4ccc(Cl)cc4)cc32)cc1` [Example 25, 6-[2-(4-Chloro-phenyl)-2H-pyrazol-3-yl]-1-(4-methoxy-phenyl)-1H-benzoimidazole], the EC150 [1] is reported as 0.056 µM and the melting point is reported as 163 °C.
For `CS(=O)(=O)c1ccc(-n2cnc3ccc(-c4ccnn4-c4ccc(F)cc4)cc32)cc1` [Example 26, 6-[2-(4-Fluoro-phenyl)-2H-pyrazol-3-yl]-1-(4-methanesulfonyl-phenyl)-1H-benzoimidazole], the EC150 [1] was 0.28 µM and the melting point was 247 °C.
For `CS(=O)(=O)c1ccc(-n2cnc3ccc(-c4ccnn4-c4ccc(Cl)cc4)cc32)cc1` [Example 27, 6-[2-(4-Chloro-phenyl)-2H-pyrazol-3-yl]-1-(4-methanesulfonyl-phenyl)-1H-benzoimidazole], the EC150 [1] was 0.16 µM and the melting point was 280 °C.
In the case of `Fc1ccc(-n2cnc3ccc(-c4cncn4-c4ccccc4)cc32)cc1` [Example 28, 1-(4-Fluoro-phenyl)-6-(3-phenyl-3H-imidazol-4-yl)-1H-benzoimidazole], the EC150 [1] is reported as 0.07 µM and the melting point is reported as 216 °C.
Work on `Fc1ccc(-n2cnc3ccc(-c4cncn4-c4ccc(Cl)cc4)cc32)cc1` [Example 29, 6-[3-(4-Chloro-phenyl)-3H-imidazol-4-yl]-1-(4-fluoro-phenyl)-1H-benzoimidazole] yielded an EC150 [1] of 0.074 µM and a melting point of 254 °C.
For `Fc1ccc(-n2cncc2-c2ccc3ncn(-c4ccc(F)cc4)c3c2)cc1` [Example 30, 1-(4-Fluoro-phenyl)-6-[3-(4-fluoro-phenyl)-3H-imidazol-4-yl]-1H-benzoimidazole], the EC150 [1] was 0.11 µM and the melting point was 247 °C.
